Values joined by “and” are separate entries in the source; they are usually repeats but may differ in a detail not shown here. Equal values may be shown once.
Experiments:
Ed 45 WT shoots = assay: Survival of wild-type shoots on medium with G-418; format: in vivo, Linum usitatissimum; settings: of four shoots
[1] = test system: Flanders 301 transgenic shoots (JH5 vector); assay: Survival of transgenic shoots on medium with G-418; format: in vivo, Linum usitatissimum; settings: of four shoots
Text: (§1) Preferably, testing the two antibiotic system in the transformation experiments is done using kanamycin for the initial selection and G-418 for the second and third rounds of selection (FIG. 1).

[2] = test system: McGregor 324 transgenic shoots (JH5 vector); assay: Survival of transgenic shoots on medium with G-418; format: in vivo, Linum usitatissimum; settings: of four shoots
Text: as §1

[3] = test system: Ed 45 288 transgenic shoots (JH5 vector); assay: Survival of transgenic shoots on medium with G-418; format: in vivo, Linum usitatissimum; settings: of four shoots
Text: as §1

Flanders WT shoots = assay: Survival of wild-type shoots on medium with G-418; format: in vivo, Linum usitatissimum; settings: of four shoots
Text: as §1

McGregor WT shoots = assay: Survival of wild-type shoots on medium with G-418; format: in vivo, Linum usitatissimum; settings: of four shoots
Text: as §1

[4] = test system: hypocotyl segments used for the Agrobacterium tumefaciens inoculation; assay: Sensitivity of hypocotyl segments to selection antibiotics; format: in vivo, flax; settings: selective antibiotic for the initial transformation
Text: as §1

[5] = test system: wild-type flax regenerated shoots; assay: Tolerance of regenerated shoots to G-418; format: in vivo; settings: tests using regenerated shoots
Text: as §1

CN[C@@H]1[C@@H](O)[C@@H](O[C@@H]2[C@@H](O)[C@H](O[C@H]3O[C@H]([C@@H](C)O)[C@@H](O)[C@H](O)[C@H]3N)[C@@H](N)C[C@H]2N)OC[C@]1(C)O [G-418]
3 and 4: Number of shoots surviving 24 days on medium with G-418 ([1]; G-418 30 mg/l) | Number of shoots surviving 24 days on medium with G-418 ([3]; G-418 100 mg/l) | Number of shoots surviving 24 days on medium with G-418 (Flanders WT shoots; G-418 20 mg/l)
no callus was produced: Callus production with the antibiotic as selective agent [4]
1 and 2: Number of shoots surviving 24 days on medium with G-418 (Ed 45 WT shoots; G-418 20 mg/l) | Number of shoots surviving 24 days on medium with G-418 (Ed 45 WT shoots; G-418 30 mg/l) | Number of shoots surviving 24 days on medium with G-418 ([1]; G-418 200 mg/l)
no natural tolerance: Natural tolerance of wild-type flax [5]
4 and 3: Number of shoots surviving 24 days on medium with G-418 ([1]; G-418 100 mg/l) | Number of shoots surviving 24 days on medium with G-418 ([2]; G-418 150 mg/l) | Number of shoots surviving 24 days on medium with G-418 ([3]; G-418 50 mg/l) | Number of shoots surviving 24 days on medium with G-418 (McGregor WT shoots; G-418 20 mg/l)
0: Number of shoots surviving 24 days on medium with G-418 (Ed 45 WT shoots; G-418 40 mg/l) | Number of shoots surviving 24 days on medium with G-418 (Ed 45 WT shoots; G-418 50 mg/l) | Number of shoots surviving 24 days on medium with G-418 (Ed 45 WT shoots; G-418 70 mg/l) | Number of shoots surviving 24 days on medium with G-418 (Ed 45 WT shoots; G-418 100 mg/l) | Number of shoots surviving 24 days on medium with G-418 (Ed 45 WT shoots; G-418 150 mg/l) | Number of shoots surviving 24 days on medium with G-418 (Ed 45 WT shoots; G-418 200 mg/l) | Number of shoots surviving 24 days on medium with G-418 (Flanders WT shoots; G-418 50 mg/l) | Number of shoots surviving 24 days on medium with G-418 (Flanders WT shoots; G-418 70 mg/l) | Number of shoots surviving 24 days on medium with G-418 (Flanders WT shoots; G-418 100 mg/l) | Number of shoots surviving 24 days on medium with G-418 (Flanders WT shoots; G-418 150 mg/l) | Number of shoots surviving 24 days on medium with G-418 (Flanders WT shoots; G-418 200 mg/l) | Number of shoots surviving 24 days on medium with G-418 (McGregor WT shoots; G-418 50 mg/l) | Number of shoots surviving 24 days on medium with G-418 (McGregor WT shoots; G-418 70 mg/l) | Number of shoots surviving 24 days on medium with G-418 (McGregor WT shoots; G-418 100 mg/l) | Number of shoots surviving 24 days on medium with G-418 (McGregor WT shoots; G-418 150 mg/l) | Number of shoots surviving 24 days on medium with G-418 (McGregor WT shoots; G-418 200 mg/l)
2 and 4: Number of shoots surviving 24 days on medium with G-418 ([1]; G-418 150 mg/l)
4: Number of shoots surviving 24 days on medium with G-418 (Ed 45 WT shoots; G-418 10 mg/l) | Number of shoots surviving 24 days on medium with G-418 ([1]; G-418 10 mg/l) | Number of shoots surviving 24 days on medium with G-418 ([1]; G-418 20 mg/l) | Number of shoots surviving 24 days on medium with G-418 ([1]; G-418 40 mg/l) | Number of shoots surviving 24 days on medium with G-418 ([1]; G-418 50 mg/l) | Number of shoots surviving 24 days on medium with G-418 ([1]; G-418 70 mg/l) | Number of shoots surviving 24 days on medium with G-418 ([2]; G-418 10 mg/l) | Number of shoots surviving 24 days on medium with G-418 ([2]; G-418 20 mg/l) | Number of shoots surviving 24 days on medium with G-418 ([2]; G-418 30 mg/l) | Number of shoots surviving 24 days on medium with G-418 ([2]; G-418 40 mg/l) | Number of shoots surviving 24 days on medium with G-418 ([2]; G-418 50 mg/l) | Number of shoots surviving 24 days on medium with G-418 ([2]; G-418 70 mg/l) | Number of shoots surviving 24 days on medium with G-418 ([2]; G-418 100 mg/l) | Number of shoots surviving 24 days on medium with G-418 ([3]; G-418 10 mg/l) | Number of shoots surviving 24 days on medium with G-418 ([3]; G-418 20 mg/l) | Number of shoots surviving 24 days on medium with G-418 ([3]; G-418 30 mg/l) | Number of shoots surviving 24 days on medium with G-418 ([3]; G-418 40 mg/l) | Number of shoots surviving 24 days on medium with G-418 ([3]; G-418 70 mg/l) | Number of shoots surviving 24 days on medium with G-418 (Flanders WT shoots; G-418 10 mg/l) | Number of shoots surviving 24 days on medium with G-418 (McGregor WT shoots; G-418 10 mg/l)
2: Number of shoots surviving 24 days on medium with G-418 (McGregor WT shoots; G-418 30 mg/l)
